Data on one compound can be found in ChEMBL document CHEMBL5370531, “Design, synthesis and pharmacological evaluation of 2,3-dihydrobenzofuran IRAK4 inhibitors for the treatment of diffuse large B-cell lymphoma” (Eur J Med Chem, 2023).

The structures appear in SMILES notation.

For the assay, the system named is OCI-Ly10. The assay can be described thus: Induction of apoptosis in human OCILY10 cells assessed as early apoptotic cells at 0.2 uM incubated for 24 hrs by Annexin V-FITC/PI staining based flow cytometry (reference value: 10 %). Format: functional.

Take `Cn1cc(-c2cc3c(cc2NC(=O)c2coc(-c4ccnc(N)c4)n2)CC(C)(C)O3)cn1`: the Activity came out at 11.2%.
